Data: US10201546B2, “Quinolinyl modulators of RORγt” (Janssen Pharmaceutica NV, priority 2013, dated 2019)
Structures can show the parent of a compound that is named as a salt. Where two headings read alike, the source gives them in different places.

Assays:
[1] = tested on: IL-17 production by CD4+ T cells under conditions which favor Th17 differentiation; experiment: Human Th17 assay (IL-17 production by CD4 T cells); format: cell-based; conditions: Homo sapiens
Experimental: The human Th17 assay tests the effect of RORγt modulatory compounds on IL-17 production by CD4 T cells under conditions which favor Th17 differentiation. Total CD4^+ T cells were isolated from the peripheral blood mononuclear cells (PBMC) of healthy donors using a CD4^+ T cell isolation kit II, following the manufacturer's instructions (Miltenyi Biotec). […] 50 μL of compound at titrated concentrations in DMSO were added into each well at final DMSO concentration at 0.2%. Cells were incubated for 1 hour, then 50 μL of Th17 cell differentiation medium was added to each well. The final concentrations of antibodies and cytokines (R&D Systems) in differentiation medium were: 3×10^6/mL anti-CD3/CD28 beads (prepared using human T cell activation/expansion kit, Miltenyi Biotec), 10 μg/mL anti-IL4, 10 μg/mL anti-IFNγ, 10 ng/mL IL113, 10 ng/mL IL23, 50 ng/mL IL6, 3 ng/mL TGFβ and 20 U/mL IL2. Cells were cultured at 37° C. and 5% CO2 for 3 days. Supernatants were collected and the accumulated IL-17 in culture was measured by using MULTI-SPOT® Cytokine Plate following manufacture's instruction (Meso Scale Discovery). The plate was read using Sector Imager 6000, and IL-17 concentration was extrapolated from the standard curve. The IC50s were determined by GraphPad.

[2] = molecular target: human RORγt ligand binding domain (RORγt LBD) (Homo sapiens (Human), UniProt P51449); experiment: RORγt ThermoFluor assay (thermal shift, binding affinity Kd)
[3] = molecular target: human RORγt LBD fused to the DNA binding domain of the GAL4 protein (Homo sapiens (Human), UniProt P51449); experiment: RORγt (LBD) reporter assay in HEK293T cells; format: cell-based; parameters: RORγt (LBD) Reporter Assay, % inhibition: dose or concentration left out as unconfirmed; conditions: for inhibition at 6 µM: HEK-293T, read-out: RORγt (LBD) Reporter Assay, % inhibition @ 6 μM, @ 6 μM
[4] = read-out: ThermoFluor Assay, Kd
[5] = read-out: ThermoFluor ® Assay, Kd

human RORγt LBD fused to the DNA binding domain of the GAL4 protein, sequence (P51449 258-518): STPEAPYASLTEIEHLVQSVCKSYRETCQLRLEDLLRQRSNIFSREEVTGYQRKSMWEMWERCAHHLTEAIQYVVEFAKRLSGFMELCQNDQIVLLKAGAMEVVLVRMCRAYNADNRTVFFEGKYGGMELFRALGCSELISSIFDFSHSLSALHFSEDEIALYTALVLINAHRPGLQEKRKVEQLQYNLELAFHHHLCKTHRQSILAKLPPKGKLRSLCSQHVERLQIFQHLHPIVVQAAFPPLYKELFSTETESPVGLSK
human RORγt ligand binding domain (RORγt LBD), sequence (P51449 other isoform, or with tags, fused parts or gaps): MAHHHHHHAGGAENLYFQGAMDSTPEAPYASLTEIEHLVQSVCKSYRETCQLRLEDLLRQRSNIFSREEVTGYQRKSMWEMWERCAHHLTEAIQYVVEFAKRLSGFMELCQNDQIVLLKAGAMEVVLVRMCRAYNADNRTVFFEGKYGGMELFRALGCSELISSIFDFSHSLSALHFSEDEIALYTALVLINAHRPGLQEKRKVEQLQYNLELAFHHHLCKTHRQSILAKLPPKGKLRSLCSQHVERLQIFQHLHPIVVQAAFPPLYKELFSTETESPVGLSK

SMILES	IC50 [1] [nM]	Kd [2, 4] [nM]	IC50 [3] [nM]	inhibition at 6 µM [3] [%]	further results
COc1nc2ccc(C(O)(c3ccccc3)C3CCN(C(C)=O)CC3)cc2c(Cl)c1C1CCOCC1 (single isomer, unassigned) [Example 7b, 1-(4-((4-Chloro-2-methoxy-3-(tetrahydro-2H-pyran-4-yl)quinolin-6-yl)(hydroxy)(phenyl)methyl)piperidin-1-yl)ethanone]	210	–	–	–	–
COc1nc2ccc(C(O)(c3sc(C)nc3C)c3cnnn3C)cc2c(Cl)c1C (single isomer, unassigned) [Example 13c, (4-Chloro-2-methoxy-3-methylquinolin-6-yl)(2,4-dimethylthiazol-5-yl)(1-methyl-1H-1,2,3-triazol-5-yl)methanol]	65	–	–	–	–
Cc1nc(C)c(C(O)(c2ccc3nc(N4CCC4)c(OC(C)C)c(Cl)c3c2)c2cnnn2C)s1 (single isomer, unassigned) [Example 82c, [2-Azetidin-1-yl-4-chloro-3-(1-methylethoxy)quinolin-6-yl](2,4-dimethyl-1,3-thiazol-5-yl)(1-methyl-1H-1,2,3-triazol-5-yl)methanol]	1.2	–	–	–	–
COc1nc2ccc(C(O)(c3ccccc3)C3CCN(C(C)=O)CC3)cc2c(Cl)c1OC(C)C (single isomer, unassigned) [Example 84b, (1-Acetylpiperidin-4-yl)[4-chloro-2-methoxy-3-(1-methylethoxy)quinolin-6-yl]phenylmethanol]	5.4	–	–	–	–
COc1nc2ccc(C(O)(c3ccc(Cl)cc3)c3cncn3C)cc2c(Cl)c1OCC(F)(F)F (single isomer, unassigned) [Example 86c, [4-Chloro-2-methoxy-3-(2,2,2-trifluoroethoxy)quinolin-6-yl](4-chlorophenyl)(1-methyl-1H-imidazol-5-yl)methanol]	21	–	–	–	–
Cn1cncc1C(O)(c1ccc(C(F)(F)F)nc1)c1ccc2nc(N3CCC3)c(OCC3CC3)c(Cl)c2c1 (single isomer, unassigned) [Example 87c, [2-Azetidin-1-yl-4-chloro-3-(cyclopropylmethoxy)quinolin-6-yl](1-methyl-1H-imidazol-5-yl)[6-(trifluoromethyl)pyridin-3-yl]methanol]	120	–	–	–	–
COc1nc2ccc(C(O)(c3ccc(C(F)(F)F)nc3)c3cncn3C)cc2c(Cl)c1OCC1CC1 (single isomer, unassigned) [Example 88c, [4-Chloro-3-(cyclopropylmethoxy)-2-methoxyquinolin-6-yl](1-methyl-1H-imidazol-5-yl)[6-(trifluoromethyl)pyridin-3-yl]methanol]	310	–	–	–	–
Cn1cncc1C(O)(c1ccc(C(F)(F)F)nc1)c1ccc2nc(N3CCC3)c(OCC(F)(F)F)c(Cl)c2c1 (single isomer, unassigned) [Example 89c, [2-Azetidin-1-yl-4-chloro-3-(2,2,2-trifluoroethoxy)quinolin-6-yl](1-methyl-1H-imidazol-5-yl)[6-(trifluoromethyl)pyridin-3-yl]methanol]	79	–	–	–	–
Cn1cncc1C(O)(c1ccc(Cl)cc1)c1ccc2nc(N3CCC3)c(OCC(F)(F)F)c(Cl)c2c1 (single isomer, unassigned) [Example 90c, [2-Azetidin-1-yl-4-chloro-3-(2,2,2-trifluoroethoxy)quinolin-6-yl](4-chlorophenyl)(1-methyl-1H-imidazol-5-yl)methanol]	200	–	–	–	–
CCOc1c(OC)nc2ccc(C(O)(c3ccc(C(F)(F)F)nc3)c3cncn3C)cc2c1Cl (single isomer, unassigned) [Example 91c, (4-Chloro-3-ethoxy-2-methoxyquinolin-6-yl)(1-methyl-1H-imidazol-5-yl)[6-(trifluoromethyl)pyridin-3-yl]methanol]	520	–	–	–	–
CC(C)Oc1c(N2CCC2)nc2ccc(C(O)(c3ccc(Cl)cc3)c3cncn3C)cc2c1Cl (single isomer, unassigned) [Example 94c, [2-Azetidin-1-yl-4-chloro-3-(1-methylethoxy)quinolin-6-yl](4-chlorophenyl)(1-methyl-1H-imidazol-5-yl)methanol]	380	–	–	–	–
Cc1c(-c2ccc3c(cnn3C)c2)nc2ccc(C(O)(c3cccnc3)c3cccc(Cl)c3)cc2c1Cl (centres unmarked) [Example 24, [4-Chloro-3-methyl-2-(1-methyl-1H-indazol-5-yl)quinolin-6-yl](3-chlorophenyl)pyridin-3-ylmethanol]	–	2000	> 6000	29	–
Cn1cncc1C(O)(c1ccc(C(F)(F)F)nc1)c1ccc2nc(N3CCC3)c(OCc3ccccc3)c(Cl)c2c1 (centres unmarked) [Example 31, [2-Azetidin-1-yl-3-(benzyloxy)-4-chloroquinolin-6-yl](1-methyl-1H-imidazol-5-yl)[6-(trifluoromethyl)pyridin-3-yl]methanol.TFA]	–	27	> 6000	-32	–
COc1nc2ccc(C(O)(c3ccc(C(F)(F)F)nc3)c3cncn3C)cc2c(Cl)c1CCC1CCN(C(C)=O)CC1 (centres unmarked) [Example 32, {3-[2-(1-Acetylpiperidin-4-yl)ethyl]-4-chloro-2-methoxyquinolin-6-yl}(1-methyl-1H-imidazol-5-yl)[6-(trifluoromethyl)pyridin-3-yl]methanol]	–	39	> 6000	32	–
COc1nc2ccc(C(O)(c3ccc(C(F)(F)F)nc3)c3cncn3C)cc2c(Cl)c1C1=CCN(C)CC1 (centres unmarked) [Example 33, [4-Chloro-2-methoxy-3-(1-methyl-1,2,3,6-tetrahydropyridin-4-yl)quinolin-6-yl](1-methyl-1H-imidazol-5-yl)[6-(trifluoromethyl)pyridin-3-yl]methanol.TFA]	–	4800	> 6000	-32	–
COc1nc2ccc(C(O)(c3ccc(C)nc3C)c3cnnn3C)cc2c(Cl)c1OCCS(C)(=O)=O (centres unmarked) [Example 70a, {4-Chloro-2-methoxy-3-[2-(methylsulfonyl)ethoxy]quinolin-6-yl}(2,6-dimethylpyridin-3-yl)(1-methyl-1H-1,2,3-triazol-5-yl)methanol]	–	3300	> 6000	36	–
COc1nc2ccc(C(O)(c3cnc(C)n3C)c3cnc(C)n3C)cc2c(Cl)c1OCc1ccccc1 [Example 75, [3-(benzyloxy)-4-chloro-2-methoxyquinolin-6-yl][bis(1,2-dimethyl-1H-imidazol-5-yl)]methanol]	–	9	> 6000	-1	–
COc1nc2ccc(C(O)c3cnc(C)n3C)cc2c(Cl)c1OC(C)C (centres unmarked) [Example 156, (4-chloro-3-isopropoxy-2-methoxyquinolin-6-yl)(1,2-dimethyl-1H-imidazol-5-yl)methanol]	–	–	> 6000	–	Kd [2, 5]: 3400 nM; RORγt (LBD) Reporter Assay, % inhibition [3]: 34%
Cc1ncc(C(O)c2ccc3nc(Cl)c(OC(C)C)c(Cl)c3c2)n1C (centres unmarked) [Example 172, (2,4-dichloro-3-isopropoxyquinolin-6-yl)(1,2-dimethyl-1H-imidazol-5-yl)methanol]	–	–	> 6000	–	Kd [2, 5]: 12000 nM; RORγt (LBD) Reporter Assay, % inhibition [3]: 12%
Cc1ccc(C(O)(c2ccc3nc(Cl)c(CC(F)(F)F)c(N4CCC4)c3c2)c2cnnn2C)c(C)n1 (centres unmarked) [Example 238a, [4-(Azetidin-1-yl)-2-chloro-3-(2,2,2-trifluoroethyl)-6-quinolyl]-(2,6-dimethyl-3-pyridyl)-(3-methyltriazol-4-yl)methanol]	–	–	> 6000	–	Kd [2, 5]: > 24000 nM; RORγt (LBD) Reporter Assay, % inhibition [3]: −8%
